Where a SMILES comes first, the peptide text is derived from it. Bridges are numbered along the chain shown (N, C = ends). [ ]: non-standard residue; d: D form. 2Nal = N[C@@H](Cc1ccc2ccccc2c1)C(=O)O; Lys(iPr) = CC(C)NCCCC[C@H](N)C(=O)O

The test system of one data set is pancreatic cancer model. The conditions noted are these: added to anti-PD-L1 monoclonal antibody regimen; cited from earlier work.
The nature of the next data set: clinical. The conditions noted are these: human, in vivo, sc, t1/2.
In data set [1] the test system is syngeneic squamous cell carcinoma model. To be noted: single agent or combination; no reference printed for the sentence; cited from earlier work.
The subject of a further data set is patients. On the set-up: method as in PMID 24727324. To be noted: 30 mg/day SC, monotherapy; cited from earlier work.
The next data set deals with cancer xenograft models. The conditions noted are these: cell lines that express high levels of CXCR4; cited from earlier work.
Data set [2] can be described thus: LY2510924 pharmacokinetics in plasma, noncompartmental analysis. The conditions noted are these: for AUC(0-inf) / Cmax: n = 3, geometric mean (CV%).
Protocol: (§1) Blood samples were drawn from all patients for the assessment of LY2510924 in plasma and durvalumab concentrations in serum at prespecified time points. The PK of LY2510924 was assessed through intensive sampling, and the PK parameter estimates were calculated by standard noncompartmental methods of analysis. PK data for durvalumab were summarized by sampling time points, and a formal noncompartmental analysis was not conducted. Samples were analyzed using a validated liquid chromatography with tandem mass spectrometry. Summary statistics was tabulated for the PK parameters of LY2510924 and durvalumab by dose and study day.
Data set [3] in a line: Durvalumab serum concentrations by sampling time point. In kind it is in vivo, human.
Protocol: as §1
[4] abbreviates: human, plasma, sc, Day 15, 20 mg/day SC.
Setting [5] is: human, plasma, sc, Day 15, 30 mg/day SC.

Protocol for clinical: as §1

Regarding `c1cc(CN2CCCNCCNCCCNCC2)ccc1CN1CCCNCCNCCCNCC1` [AMD3100], the “effect on T cells and antitumor efficacy of anti-PD-L1 monoclonal antibody” value in the data set on pancreatic cancer model is “T cell redistribution and rapid accumulation near tumors, enhancing the antitumor efficacy”.
Turning to `CC(C)NCCCC[C@H](NC(=O)[C@H]1CCC(=O)N[C@@H](Cc2ccccc2)C(=O)N[C@@H](Cc2ccc(O)cc2)C(=O)N[C@@H](CCCCNC(C)C)C(=O)N[C@H](CCCNC(=N)N)C(=O)N[C@@H](Cc2ccc3ccccc3c2)C(=O)NCC(=O)N1)C(N)=O` [LY2510924] (FY[Lys(iPr)][dR][2Nal]G[dE][Lys(iPr)]-NH2; lactam N-7), in the data set “clinical”, the half-life is 5.11 h. Further, the antitumor activity result in data set [1] is on record as “minimal activity”. In addition, the “patients with dose-limiting toxicity (grade 3 increase in ANC >25,000 cells/μL for >5 days)” value with patients is on record as “two”. In addition, in the data set on cancer xenograft models, the “tumor growth and metastasis” value was “dose-dependent inhibition”. Moreover, the “PK variability on AUC” value in data set [2] (20, 30 and 40 mg daily SC) worked out at 69%. In addition, the “PK variability on Cmax” value in data set [2] (20, 30 and 40 mg daily SC) was about 60%. Also, the “mean apparent volume of distribution” value in data set [2] (20, 30 and 40 mg daily SC, all nine patients) stood at 59 L. In data set [2] (human, plasma, sc, 40 mg, mean apparent clearance, 20, 30 and 40 mg daily SC, all nine patients), the CL/F is 117 mL/min. In addition, the AUC(0-inf) was determined as 1960 ng·h/mL in data set [2] (setting [4]) and 4320 ng·h/mL in data set [2] (setting [5]). Besides, the Cmax in data set [2] (human, plasma, sc, Day 1, 20 mg/day SC, with durvalumab) is 747 ng/mL; in data set [2] (human, plasma, sc, Day 1, 30 mg/day SC, with durvalumab), 682 ng/mL; in data set [2] (human, plasma, sc, Day 1, 40 mg/day SC, with durvalumab) it was 1860 ng/mL; in data set [2] (setting [4]), 367 ng/mL; in data set [2] (setting [5]), 847 ng/mL; in data set [2] (human, plasma, sc, Day 15, 40 mg/day SC), 1680 ng/mL.
Consider “durvalumab: selective, high-affinity, human immunoglobulin G1 monoclonal antibody that blocks PD-L1 binding to PD-1 and CD80”, for which the “peak concentration, geometric mean” value in data set [3] (week 0, 1500 mg Q4W IV infusion over 60 min, n = 8, %CV 33.2%) turned out to be 418 µg/mL; in data set [3] (week 12, 1500 mg Q4W IV, n = 4, %CV 30.8%) it was 549 µg/mL. Moreover, the “trough concentration, geometric mean” value in data set [3] (week 4, 1500 mg Q4W IV, n = 8, %CV 50.3%) was 106 µg/mL; in data set [3] (week 8, 1500 mg Q4W IV, n = 4, %CV 58.4%) it was 133 µg/mL; in data set [3] (week 12, 1500 mg Q4W IV, n = 4, %CV 46.8%) it was 126 µg/mL; in data set [3] (week 20, 1500 mg Q4W IV, n = 1), 74.9 µg/mL.

The values are drawn from publication PMC7097682, “Safety and Pharmacokinetics of CXCR4 Peptide Antagonist, LY2510924, in Combination with Durvalumab in Advanced Refractory Solid Tumors” (Journal of Pancreatic Cancer, 2020).
